Test results published in patent publication US20220275018A1, “NOVEL SPIROBICYCLIC INTERMEDIATES” (Janssen Pharmaceutica NV, priority 2019, published 2022).

system: not given; test: not given; details: not given

| melting point [°C] | Compound |
| --- | --- |
| 101.79 | CC1(C)O[C@H]2OC3(CC(=O)C3)[C@@H](OCc3ccc4ccccc4c3)[C@H]2O1 [Compound 66.4] |
| 102.01 | C=C1O[C@@H]2OC(C)(C)O[C@@H]2[C@@H]1OCc1ccc2ccccc2c1 [Compound 66.2] |

biological target: human PRMT5 complex enzyme (Homo sapiens, UniProt O14744); test: PRMT5 inhibition study ([3H]SAM / Histone H4 methylation, filter scintillation counting); type: biochemical; details: 30 μM test compound; 120 min at 22° C.; 600 nM [3H]SAM, 250 nM Histone H4 full length; percent inhibition of the control enzyme activity
Sequence (O14744 whole entry): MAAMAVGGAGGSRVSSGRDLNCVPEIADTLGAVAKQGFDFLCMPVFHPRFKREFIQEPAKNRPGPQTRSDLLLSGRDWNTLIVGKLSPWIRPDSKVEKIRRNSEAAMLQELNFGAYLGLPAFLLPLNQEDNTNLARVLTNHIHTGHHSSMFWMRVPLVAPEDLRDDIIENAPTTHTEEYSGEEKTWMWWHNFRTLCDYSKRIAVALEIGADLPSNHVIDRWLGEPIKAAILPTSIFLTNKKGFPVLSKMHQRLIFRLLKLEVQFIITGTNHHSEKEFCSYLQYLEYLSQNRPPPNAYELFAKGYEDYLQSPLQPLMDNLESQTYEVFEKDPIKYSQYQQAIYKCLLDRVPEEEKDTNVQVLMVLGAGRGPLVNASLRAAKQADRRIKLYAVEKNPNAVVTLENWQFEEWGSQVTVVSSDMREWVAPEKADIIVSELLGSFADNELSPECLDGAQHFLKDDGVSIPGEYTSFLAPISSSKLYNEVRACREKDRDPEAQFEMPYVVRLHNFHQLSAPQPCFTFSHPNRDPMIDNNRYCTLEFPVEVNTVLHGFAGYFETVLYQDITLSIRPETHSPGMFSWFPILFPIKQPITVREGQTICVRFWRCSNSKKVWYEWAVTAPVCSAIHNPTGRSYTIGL
Sequence (Q9BQA1 whole entry partner): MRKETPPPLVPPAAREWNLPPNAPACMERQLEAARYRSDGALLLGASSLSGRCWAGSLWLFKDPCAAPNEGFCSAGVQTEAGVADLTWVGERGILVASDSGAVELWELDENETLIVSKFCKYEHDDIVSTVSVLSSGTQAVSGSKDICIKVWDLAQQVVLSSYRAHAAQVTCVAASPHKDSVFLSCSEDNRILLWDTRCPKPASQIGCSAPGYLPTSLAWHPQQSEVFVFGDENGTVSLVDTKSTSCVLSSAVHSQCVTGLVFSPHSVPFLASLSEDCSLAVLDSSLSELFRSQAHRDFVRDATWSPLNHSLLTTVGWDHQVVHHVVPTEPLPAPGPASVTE
Protocol: The test compound, reference compound, or water (control) were incubated for 120 min at 22° C. with about 200 ng human PRMT5 complex enzyme, 600 nM [^3H]SAM and 250 nM Histone H4 full length in a buffer containing 45 mM Tris-HCl (pH 9), 45 mM NaCl, 4.5 mM MgCl2 and 3.6 mM DTT (Dithiothreitol).
For control basal measurements, the enzyme was omitted from the reaction mixture. Following incubation, the reaction was stopped by adding 33 mM citric acid and the samples were filtered rapidly in vacuo through glass fiber filters (GF/B, Packard) presoaked with 33 mM citric acid and rinsed several times with ice-cold 33 mM citric acid using a 96-sample cell harvester (Unifilter, Packard). The filters were dried then counted for radioactivity in a scintillation counter (Topcount, Packard) using a scintillation cocktail (Microscint 0, Packard).
The results were expressed as a percent inhibition of the control enzyme activity.

| inhibition at 30 µM [%] | % PRMT5 inhibition at 30 μM [%] | Compound |
| --- | --- | --- |
| 36.4 | – | Nc1ncnc2c1ncn2[C@@H]1O[C@@]2(C[C@H]2CO)C(O)C1O (stereo partly drawn) [drawing 332] |
| 31 | – | Nc1ncnc2c1ncn2[C@@H]1O[C@]2(C[C@H]2CO)C(O)C1O (stereo partly drawn) |
| 39 | – | CCCNC[C@H]1C[C@]12O[C@@H](n1cnc3c(N)ncnc31)C(O)C2O (stereo partly drawn) |
| 84 | – | Nc1ncnc2c1ncn2[C@@H]1O[C@]2(C[C@@H]2CO)C(O)C1O (stereo partly drawn) |
| – | 55.9 | Nc1ncnc2c1ncn2[C@@H]1O[C@@]2(C[C@H]2CO)C(O)C1O (stereo partly drawn) [drawing 333] |
| 42 | – | Nc1ncnc2c1ncn2[C@@H]1O[C@@]2(CC[C@@H]2O)C(O)C1O (stereo partly drawn) |
| 16 | – | CCCN(C)C[C@H]1C[C@]12O[C@@H](n1cnc3c(N)ncnc31)C(O)C2O (stereo partly drawn) |
| 72 | – | Nc1ncnc2c1ncn2[C@@H]1O[C@@]2(C[C@H]2O)C(O)C1O (stereo partly drawn) |
| 79 | – | NC[C@H]1C[C@]12O[C@@H](n1cnc3c(N)ncnc31)C(O)C2O (stereo partly drawn) |
| 29 | – | Nc1ncnc2c1ncn2[C@@H]1O[C@@]2(C[C@@H]2CO)C(O)C1O (stereo partly drawn) |
| 98 | – | Nc1ncnc2c1ncn2[C@@H]1O[C@@]2(CC[C@H]2O)C(O)C1O (stereo partly drawn) |

Second part, the compound before the results:

| Compound | inhibition at 30 µM [%] | % PRMT5 inhibition at 30 μM [%] |
| --- | --- | --- |
| Nc1ncnc2c1ccn2[C@@H]1C[C@]2(C[C@@H](Cc3cccnc3)C2)[C@@H](O)[C@H]1O | 99.8 | – |
| Nc1ncnc2c1ncn2[C@@H]1O[C@]2(C[C@H](O)C2)[C@@H](O)[C@H]1O | 37.7 | – |
| Nc1ncnc2c1ccn2[C@@H]1C[C@]2(C[C@H](Cc3cccnc3)C2)[C@@H](O)[C@H]1O | 100 | – |
| Nc1ncnc2c1ccn2[C@@H]1C[C@]2(C[C@@H](Cc3ccn4ccnc4c3)C2)[C@@H](O)[C@H]1O | 102 | – |
| Nc1ncnc2c1ncn2[C@@H]1O[C@]2(C[C@@H](O)C2)[C@@H](O)[C@H]1O | 70.3 | – |
| CCCN[C@H]1C[C@]2(C[C@@H](n3cnc4c(N)ncnc43)[C@H](O)[C@@H]2O)C1 | 69.8 | – |
| Nc1ncnc2c1ccn2[C@@H]1O[C@]2(C[C@@H](N)C2)[C@@H](O)[C@H]1O | 46.3 | – |
| CCCN[C@H]1C[C@]2(C1)O[C@@H](n1cnc3c(N)ncnc31)[C@H](O)[C@@H]2O | 33.8 | – |
